Blank lines part the entries; values can stand above or below the molecule they belong to.
How the values were obtained:
BRAF (V600E) kinase = biological target: T1, BRAF (V600E) kinase (Homo sapiens, UniProt P15056, V600E); experiment: BRAF (V600E) kinase inhibitory activity ([γ-32P]ATP, GST-MEK1 (K96R) substrate); assay type: biochemical; conditions: 1 μM compound; BRAF (V600E) 30 ng, GST-MEK1 (K96R) 250 ng; room temperature, 20 min; read-out: The inhibitory rate of the compounds at 1 μM (%)
T1 construct: made in house; host or cells: SF-21 insect cells, recombinant baculovirus BAC-V600E
T1 sequence (P15056 457-717 V600E limits assumed): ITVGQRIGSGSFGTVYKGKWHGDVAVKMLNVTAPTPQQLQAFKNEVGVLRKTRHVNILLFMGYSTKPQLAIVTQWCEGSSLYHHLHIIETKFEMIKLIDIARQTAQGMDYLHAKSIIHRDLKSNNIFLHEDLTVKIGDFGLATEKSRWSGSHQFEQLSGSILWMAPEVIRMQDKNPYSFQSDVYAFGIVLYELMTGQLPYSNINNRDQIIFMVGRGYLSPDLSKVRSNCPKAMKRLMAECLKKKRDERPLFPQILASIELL
Experimental: Human BRAF gene was cloned by PCR using human Testis cDNA library (Clontech) as a template. The primer used for PCR was prepared from base sequence (Genbank Accession NM_004333) information of BRAF gene by adding a base sequence encoding flag peptide and a recognition sequence of the restriction enzyme to area encoding the BRAF kinase domain region, so that the protein contains an N-terminal Flag. The primer base sequence is shown below.
The PCR reaction was conducted using Pyrobest (Takara Shuzo Co., Ltd). The obtained PCR product was electrophoresed on agarose gel (1%), the DNA fragment amplified by PCR was recovered from the gel, and then digested with restriction enzymes EcoRI and SalI. The DNA treated with the restriction enzymes was electrophoresed on agarose gel (1%), and the obtained DNA fragment was recovered. The recovered DNA fragment was ligated to plasmid pFASTBAC1 (Invitrogen) digested with restriction enzymes EcoRI and SalI to give expression plasmid pFB-BRAF, and the base sequence of the insert fragment was confirmed. In addition, mutation was introduced into V600E using a Quick change Site Directed Mutagenesis kit (Stratagene). The nucleotide sequences of the primers used are shown in the following.
The obtained plasmid was sequenced to confirm the introduction of mutation into V600E. The plasmid DNA was digested with restriction enzymes EcoRI and SalI, DNA treated with the restriction enzymes was electrophoresed on agarose gel (1%), and the obtained DNA fragment was recovered. The recovered DNA fragment was ligated to plasmid pFASTBAC1 (Invitrogen) digested with restriction enzymes EcoRI and SalI to give expression plasmid pFB-V600E.
SF-21 cells were sown at 1×10^6 cells/mL to Sf-900II SFM medium (1 L, Invitrogen) containing 10% fetal bovine serum (Trace), 50 mg/L Gentamicin (Invitrogen) and 0.1% Pluronic F-68 (Invitrogen), and shaking culture was performed using a 2 L volume Erlenmeyer flask at 27° C., 100 rpm. After culturing for 24 hr, recombinant baculovirus BAC-V600E (13.4 mL) was added to the mixture, and the mixture was further cultured for 3 days. […]

[1] = test system: phosphorylated MEK1/2 in human colon cancer cell HT-29; experiment: Colon cancer cell HT-29 intracellular MEK phosphorylation inhibitory action in vitro (Western blot); assay type: cell-based; conditions: HT-29 cells, 2 hr treatment, anti-phosphorylated MEK1/2 (Ser217/221), read-out: IC50 (nM), MEK phosphorylation inhibition
Experimental: A cell suspension (500 μL) of human colon cancer cell HT-29 was plated in a 48-well plate (100,000 cells/well), and the cells were cultured overnight at 37° C. in the presence of 5% CO2, treated with a test compound (250 μL/well) diluted in 3-fold dilution series and cultured for two more hours. After 2 hr, the culture medium containing the test compound was removed, and the cells were lysed with SDS sample buffer (100 μL/well) and heated at 95° C. for 5 min. Thereafter, the cells were applied to SDS-PAGE, and the protein was transferred onto Sequi-Blot™ PVDF Membrane (Bio-Rad, Richmond, Calif.) by the Western blot method. The cells were blocked with a block-Ace solution (Snow Brand Milk Products Co., Ltd) dissolved in phosphate buffer to 5% W/V, and reacted overnight with anti-phosphorylated MEK1/2 (Ser217/221) (Cell signaling #9121) diluted 1000-fold with phosphate buffer containing 0.4% block-Ace. […] The membrane was washed in the same manner as above, chemical luminescence of a phosphorylated MEK1/2 protein labeled with the antibody, which was caused by ECL-plus Detection Reagent (Amersham bioscience), was detected by Luminescent Image Analyzer LAS-1000 (FUJIFILM Corporation).

[2] = test system: Human umbilical vein vascular endothelial cells (HUVEC); experiment: Vascular endothelial cell growth inhibitory test (VEGF-stimulated HUVEC, WST-8); assay type: cell-based; conditions: 120 h, VEGF 120 ng/mL solution added, 5 days of culture, read-out: IC50 value, vascular endothelial cell growth inhibition
Experimental: To be specific, HUVEC was suspended in a vascular endothelial cell medium containing the aforementioned 3% bovine fetal serum and plated in a 96 well flat bottom plate by 50 μL (3000 cells) each well. After culture overnight, various concentrations of the test substance and 120 ng/mL of vascular endothelial growth factor (VEGF) were dissolved in a vascular endothelial cell medium containing 3% bovine fetal serum and added to each well by 50 μL. […] The absorbance at 450 nm was measured by a microtiter plate reader and the cell growth inhibitory activity was determined.

[3] = biological target: VEGFR2 intracellular domain protein (Homo sapiens, UniProt P35968); experiment: VEGF receptor 2 kinase inhibitory activity (AlphaScreen); conditions: read-out: The inhibitory rate of the compounds at 1 μM (VEGF receptor 2 kinase)
VEGFR2 intracellular domain protein, sequence (P35968 786-1356 limits assumed): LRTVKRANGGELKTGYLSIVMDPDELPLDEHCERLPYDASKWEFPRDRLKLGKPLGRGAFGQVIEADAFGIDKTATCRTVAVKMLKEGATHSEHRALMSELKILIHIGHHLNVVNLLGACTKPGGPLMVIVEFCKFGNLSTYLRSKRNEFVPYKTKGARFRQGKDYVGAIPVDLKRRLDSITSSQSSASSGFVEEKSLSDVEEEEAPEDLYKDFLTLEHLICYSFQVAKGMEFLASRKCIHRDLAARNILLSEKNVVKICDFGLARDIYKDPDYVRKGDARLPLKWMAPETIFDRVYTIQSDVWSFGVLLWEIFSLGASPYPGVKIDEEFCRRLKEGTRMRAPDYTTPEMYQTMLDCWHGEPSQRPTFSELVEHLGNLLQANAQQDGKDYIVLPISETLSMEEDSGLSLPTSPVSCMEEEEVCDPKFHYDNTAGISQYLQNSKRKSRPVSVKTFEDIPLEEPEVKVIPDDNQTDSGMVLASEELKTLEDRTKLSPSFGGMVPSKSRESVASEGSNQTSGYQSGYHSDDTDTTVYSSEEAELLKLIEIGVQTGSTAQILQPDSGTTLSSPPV
Experimental: Human vascular endothelial growth factor receptor 2 (hereinafter to be referred to as VEGFR2) gene was cloned by PCR using cDNA Libraries Human Placenta (Clontech) as a template.
The PCR reaction was conducted using a KOD-plus kit (TOYOBO). […] Furthermore, using BAC-TO-BAC Baculovirus Expression System (Invitrogen), virus stock BAC-VEGFR2 of recombinant baculovirus was prepared.
SF-21 cells were sown at 1×10^6 cells/mL to Sf-900II SEM medium (1 L, Invitrogen) containing 10% fetal bovine serum (trace), 50 mg/L Gentamicin (Invitrogen) and 0.1% Pluronic F-68 (Invitrogen), and shaking culture was performed using a 2 L volume Erlenmeyer flask at 27° C., 100 rpm. After culturing for 24 hrs, recombinant baculovirus BAC-VEGFR2 (13.4 mL) was added to the mixture, and the mixture was further cultured for 3 days. The culture medium was centrifuged at 2,000 rpm for 5 min to give virus-infected cells. The infected cells were washed with a phosphate buffered saline (Invitrogen), centrifuged under the same conditions, and the cells were preserved at −80° C. The cryopreserved cells were thawed in ice, suspended in buffer A (50 mM Tris buffer (30 mL, pH 7.4) containing 20% glycerol, 0.15 M NaCl) supplemented with Complete Protease Inhibitor (Boehringer), and ruptured 3 times with a Polytron homogenizer (Kinematica) at 20,000 rpm for 30 sec. The ruptured medium was clarified by centrifugation at 40,000 rpm for 30 min and filtered with a 0.45 μm filter. The filtrate was passed through a column packed with Anti-FLAG M2 Affinity Gel (4 mL, Sigma) at a flow rate of about 0.5 mL/min. The column was washed with buffer A, and eluted with buffer A containing 100 μg/mL of FLAG peptide. The eluate was concentrated with Vivaspin 20 (Vivascience) having a molecular weight cut off of 30K. The buffer of this concentrate was exchanged using NAP™ 25 column (Amersham Bioscience) equilibrated with buffer A. The fractions containing intracellular domain protein of VEGFR2 were collected, glycerol was added to the final concentration of 50% and cryopreserved at −80° C.
A test compound dissolved in DMSO was diluted with a buffer (50 mM Tris-HCl (pH 7.5), 5 mM MgCl2, 5 mM MnCl2, 2 mM dithiothreitol, 0.01% Tween-20). To this compound solution (5 μL) was added a buffer (10 μL) containing 50 ng/mL of VEGFR2 intracellular domain protein and 250 ng/mL of biotin labeled polypeptide biotinyl-poly-Glu:Tyr (4:1, CIS bio International). […] The reaction solution was allowed to stand at 25° C. for 16 hrs, and the wells were counted using a plate reader Fusion™ (PerkinElmer). The kinase inhibitory rate (%) of the test compound was calculated by the following formula: Inhibitory rate(%)=(1−(count of test compound−blank)÷(control−blank))×100

[4] = biological target: T2, PDGFRβ intracellular domain protein (Homo sapiens, UniProt P09619); experiment: PDGFRβ kinase inhibitory activity (AlphaScreen); assay type: biochemical; conditions: ATP 50 μM solution; 25° C., 60 min; read-out: IC50 value, PDGFRβ kinase inhibition
T2 construct: 125 ng/ml of PDGFRβ intracellular domain protein (UPSTATE); purchased UPSTATE
T2 sequence (P09619 554-1106 limits assumed): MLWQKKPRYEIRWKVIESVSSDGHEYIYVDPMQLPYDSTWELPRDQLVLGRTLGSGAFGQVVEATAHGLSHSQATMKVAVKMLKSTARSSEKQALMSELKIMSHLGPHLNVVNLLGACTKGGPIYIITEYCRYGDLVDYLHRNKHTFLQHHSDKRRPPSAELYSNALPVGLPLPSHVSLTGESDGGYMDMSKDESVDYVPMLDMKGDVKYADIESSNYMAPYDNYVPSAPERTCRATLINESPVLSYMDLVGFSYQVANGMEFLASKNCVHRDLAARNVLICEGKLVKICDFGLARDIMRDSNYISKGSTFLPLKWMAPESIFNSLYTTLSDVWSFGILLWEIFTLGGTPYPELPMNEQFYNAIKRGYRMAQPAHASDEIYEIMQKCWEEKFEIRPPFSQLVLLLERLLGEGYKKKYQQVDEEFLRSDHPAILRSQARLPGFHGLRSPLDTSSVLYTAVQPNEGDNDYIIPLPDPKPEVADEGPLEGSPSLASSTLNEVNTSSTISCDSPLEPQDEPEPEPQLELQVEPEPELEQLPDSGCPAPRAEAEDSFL
Experimental: (§1) A test compound dissolved in dimethyl sulfoxide (DMSO) was diluted with a buffer (50 mM Tris-HCl (pH 7.5), 5 mM MgCl2, 5 mM MnCl2, 2 mM dithiothreitol, 0.01% Tween-20). […] The reaction solution was allowed to stand at 25° C. for 16 hr, and the wells were counted using a plate reader Fusion™ (PerkinElmer). The kinase inhibitory rate (%) of the test compound was calculated by the following formula: Inhibitory rate(%)=(1−(count of test compound−blank)÷(control−blank))×100
(§2) The count of the solution reacted without addition of the compound was used as a “control”, and the count of the solution without the compound and ATP was used as a “blank”.

[5] = biological target: T3, Platelet-derived growth factor receptor α (PDGFRα) intracellular domain protein (Homo sapiens, UniProt P16234); experiment: PDGFRα kinase inhibitory activity (AlphaScreen); assay type: biochemical; conditions: ATP 25 μM solution; 25° C., 30 min; read-out: IC50 value, PDGFRα kinase inhibition
T3 construct: 125 ng/ml of PDGFα intracellular domain protein (UPSTATE); purchased UPSTATE
T3 sequence (P16234 550-1089 limits assumed): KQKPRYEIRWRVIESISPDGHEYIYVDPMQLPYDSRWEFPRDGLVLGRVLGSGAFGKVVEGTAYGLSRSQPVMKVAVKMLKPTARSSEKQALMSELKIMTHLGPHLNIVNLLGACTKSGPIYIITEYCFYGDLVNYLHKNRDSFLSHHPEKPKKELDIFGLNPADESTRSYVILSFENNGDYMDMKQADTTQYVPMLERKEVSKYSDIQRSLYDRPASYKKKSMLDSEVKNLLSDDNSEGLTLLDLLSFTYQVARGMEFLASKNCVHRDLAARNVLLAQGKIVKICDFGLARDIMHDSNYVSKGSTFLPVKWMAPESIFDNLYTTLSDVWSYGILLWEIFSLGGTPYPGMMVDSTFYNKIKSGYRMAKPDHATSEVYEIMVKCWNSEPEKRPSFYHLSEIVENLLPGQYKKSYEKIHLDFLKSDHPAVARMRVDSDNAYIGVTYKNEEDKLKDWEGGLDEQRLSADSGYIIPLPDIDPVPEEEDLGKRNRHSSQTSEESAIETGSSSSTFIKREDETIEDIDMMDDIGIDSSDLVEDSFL
Experimental: as §1, with “hrs,” for “hr,”
as §2

[6] = test system: human colon cancer cell HT-29; experiment: Colon cancer cell HT-29 growth suppressive action in vitro (SRB); assay type: cell-based; conditions: 72 h, HT-29 cells, cultured for 3 days with compound, SRB staining, read-out: IC50 (nM), HT-29 growth suppression
Experimental: A cell suspension (100 μL, 3,000 cells/well) of human colon cancer cell HT-29 (purchased from ATCC) was plated in a 96-well plate, and the cells were cultured at 37° C. in a 5% carbon dioxide gas incubator. The next day, 2-fold serial dilution of each test compound solution (diluted from maximum concentration 20 μM) (100 μL) was added, and the cells were cultured for 3 days. The culture medium containing the test compound was removed, and the cells were washed with phosphate buffer (PBS). A 50% trichloroacetic acid solution was added to the final concentration of 10% (v/v), and the mixture was stood overnight at 4° C., whereby the cells were fixed to the plate. Then, a dye SRB 0.4% (W/V) solution (dissolved in 1% acetic acid) was added at 50 μl/well, whereby the cell protein was fixed and stained (Skehan et al., Journal Of National Cancer Institute, vol. 82, pp. 1107-1112, 1990). The cells were washed 3 times with 1% acetic acid solution (200 μL/well), and 100 μL of an extract (10 mM Tris buffer) was added to extract the dye. The absorbance at an absorption wavelength […] was measured, and cell amount was measured as a protein amount.

inhibition at 1 µM (BRAF (V600E) kinase): 100%
Compound: Cc1ccc(NC(=O)c2cccc(C(F)(F)F)c2)cc1Oc1ccc2nc(NC(=O)C3CC3)nn2c1 [Example 235, N-[3-({2-[(cyclopropylcarbonyl)amino][1,2,4]triazolo[1,5-a]pyridin-6-yl}oxy)-4-methylphenyl]-3-(trifluoromethyl)benzamide]

inhibition at 1 µM (BRAF (V600E) kinase): 100%
Compound: O=C(Nc1cccc(Oc2ccc3nc(NC(=O)C4CC4)cn3c2)c1)c1cccc(C(F)(F)F)c1 [Example 226, N-[3-({2-[(cyclopropylcarbonyl)amino]imidazo[1,2-a]pyridin-6-yl}oxy)phenyl]-3-(trifluoromethyl)benzamide]

inhibition at 1 µM (BRAF (V600E) kinase): 100%
Compound: CC(C)(C#N)c1cccc(C(=O)Nc2cccc(Oc3ccc4nc(NC(=O)C5CC5)nn4c3)c2)c1 [Example 231, 3-(1-cyano-1-methylethyl)-N-[3-({2-[(cyclopropylcarbonyl)amino][1,2,4]triazolo[1,5-a]pyridin-6-yl}oxy)phenyl]benzamide]

IC50 [1]: < 500 nM
Compound: N#CC1(c2cccc(C(=O)Nc3cccc(Oc4ccc5nc(NC(=O)C6CC6)nn5c4)c3)c2)CC1 [Example 232, 3-(1-cyanocyclopropyl)-N-[3-({2-[(cyclopropylcarbonyl)amino][1,2,4]triazolo[1,5-a]pyridin-6-yl}oxy)phenyl]benzamide]

inhibition at 1 µM [3]: ≥ 90%
IC50 [4]: ≤ 0.5 µM
IC50 [5]: ≤ 0.5 µM
Compound: Cc1cc(C(=O)Nc2cc(Oc3ccc4nc(NC(=O)C5CC5)cn4c3)ccc2F)n(C)n1 [Example 9-2, N-[5-({2-[(cyclopropylcarbonyl)amino]imidazo[1,2-a]pyridin-6-yl}oxy)-2-fluorophenyl]-1,3-dimethyl-1H-pyrazole-5-carboxamide]
IC50 [2]: ≤ 0.5 µM

IC50 [6]: < 500 nM
IC50 [1]: < 500 nM
Compound: CC(C)(C#N)c1cccc(C(=O)Nc2cccc(Oc3ccc4nc(NC(=O)C5CC5)cn4c3)c2)c1 [Example 228, 3-(1-cyano-1-methylethyl)-N-[3-({2-[(cyclopropylcarbonyl)amino]imidazo[1,2-a]pyridin-6-yl}oxy)phenyl]benzamide]

IC50 [6]: < 500 nM
Compound: Cc1ccc(NC(=O)c2cccc(C(C)(C)C#N)c2)cc1Oc1ccc2nc(NC(=O)C3CC3)nn2c1 [Example 233, 3-(1-cyano-1-methylethyl)-N-[3-({2-[(cyclopropylcarbonyl)amino][1,2,4]triazolo[1,5-a]pyridin-6-yl}oxy)-4-methylphenyl]benzamide]
